Where two headings read alike, the source gives them in different places.
Assays:
Format in all cases: cell-based
[1] = biological target: T1, hGCGR (Homo sapiens, UniProt P47871); assay: Functional cAMP formation (HTRF) in HEK-293 clonal cells expressing hGCGR, 0.1% bovine casein, without or with 1.0% human serum albumin; settings: cAMP, incubated at 37° C., 0.1% bovine casein (no human serum albumin), geometric mean
T1 construct: expressed in transfected cells
Method in brief: (§1)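 Cells were stimulated with peptide for 30 min at 37° C, then lysed in buffer carrying cAMP-d2 and anti-cAMP Eu3+-cryptate for a competitive HTRF read after at least 60 min at room temperature. The 665/620 nm ratio was converted to nM cAMP against a standard curve.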

[2] = biological target: hGLP-1R (Homo sapiens, UniProt P43220); assay: Functional cAMP formation (HTRF) in HEK-293 clonal cells expressing hGLP-1R, 0.1% bovine casein, without or with 1.0% human serum albumin; parameters: expressed in transfected cells; settings: for EC50: hGLP-1R EC50, nM (SEM, n), cAMP, incubated at 37° C., 0.1% bovine casein (no human serum albumin), geometric mean; for Emax: 37° C., 0.1% bovine casein, arithmetic mean
hGLP-1R, sequence (P43220 24-463): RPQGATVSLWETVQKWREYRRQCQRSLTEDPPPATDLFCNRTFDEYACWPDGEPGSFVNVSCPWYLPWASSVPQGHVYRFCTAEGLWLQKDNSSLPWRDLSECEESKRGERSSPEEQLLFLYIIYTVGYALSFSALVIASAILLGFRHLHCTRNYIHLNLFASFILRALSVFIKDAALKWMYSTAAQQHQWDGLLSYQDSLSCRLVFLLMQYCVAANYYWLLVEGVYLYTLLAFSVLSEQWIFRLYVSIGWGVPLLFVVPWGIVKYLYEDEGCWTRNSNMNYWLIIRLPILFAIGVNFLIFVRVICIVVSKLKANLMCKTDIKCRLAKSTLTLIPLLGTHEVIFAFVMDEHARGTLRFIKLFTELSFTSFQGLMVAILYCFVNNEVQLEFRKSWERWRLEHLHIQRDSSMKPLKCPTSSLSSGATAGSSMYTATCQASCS
Method in brief: as §1

[3] = biological target: T2, hGIPR (Homo sapiens, UniProt P48546); assay: Functional cAMP formation (HTRF) in HEK-293 clonal cells expressing hGIPR, 0.1% bovine casein, without or with 1.0% human serum albumin; settings: for Emax: 37° C., 0.1% bovine casein, arithmetic mean; for EC50: cAMP, incubated at 37° C., 0.1% bovine casein (no human serum albumin), geometric mean
T2 construct: expressed in transfected cells
T2 sequence (P48546 22-466): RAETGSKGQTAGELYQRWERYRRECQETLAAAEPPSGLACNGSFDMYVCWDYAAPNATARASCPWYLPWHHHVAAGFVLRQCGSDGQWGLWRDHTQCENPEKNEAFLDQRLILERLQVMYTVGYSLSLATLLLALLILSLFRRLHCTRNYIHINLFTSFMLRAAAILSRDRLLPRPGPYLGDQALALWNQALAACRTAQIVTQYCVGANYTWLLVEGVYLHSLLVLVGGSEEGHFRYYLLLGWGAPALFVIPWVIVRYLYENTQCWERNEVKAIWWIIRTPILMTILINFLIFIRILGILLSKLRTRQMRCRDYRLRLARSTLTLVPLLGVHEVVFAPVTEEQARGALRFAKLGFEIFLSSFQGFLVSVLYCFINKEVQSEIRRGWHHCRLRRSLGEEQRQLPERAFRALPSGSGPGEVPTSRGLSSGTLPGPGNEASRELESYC
Method in brief: as §1

[4] = HEK293, read-out: hGIPR Emax, % ± SEM, percent of maximal response to GIP(1-42)NH2
[5] = HEK293, read-out: hGLP-1R Emax, % ± SEM, percent of maximal response to GLP-1(7-36)NH2

T1 sequence (P47871 26-477): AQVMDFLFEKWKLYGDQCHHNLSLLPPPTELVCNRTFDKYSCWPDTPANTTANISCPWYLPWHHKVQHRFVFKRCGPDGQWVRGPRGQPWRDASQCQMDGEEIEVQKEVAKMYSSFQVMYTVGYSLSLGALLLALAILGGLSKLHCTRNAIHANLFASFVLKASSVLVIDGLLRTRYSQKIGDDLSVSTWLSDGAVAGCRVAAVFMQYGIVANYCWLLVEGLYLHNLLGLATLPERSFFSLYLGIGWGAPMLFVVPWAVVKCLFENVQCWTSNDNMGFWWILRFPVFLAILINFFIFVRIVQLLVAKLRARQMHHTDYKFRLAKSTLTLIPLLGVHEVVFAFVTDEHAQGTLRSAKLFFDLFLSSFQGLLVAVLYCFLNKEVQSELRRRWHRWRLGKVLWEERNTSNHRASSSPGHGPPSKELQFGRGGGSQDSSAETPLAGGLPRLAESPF

| SMILES | EC50 ([1]; hGCGR EC50, nM (SEM, n)) | EC50 [2] | Emax [3, 4] | EC50 ([3]; hGIPR EC50, nM (SEM, n)) | Emax [2, 5] | EC50 ([1]; read-out: hGCGR EC50, nM (SEM, n)) | Emax ([2]; HEK293, percent of maximal response to GLP-1(7-36)NH2, read-out: hGLP-1R Emax, % ± SEM) | Emax ([3]; HEK293, percent of maximal response to GIP(1-42)NH2, read-out: hGIPR Emax, % ± SEM) | EC50 ([3]; read-out: hGIPR EC50, nM (SEM, n)) |
| --- | --- | --- | --- | --- | --- | --- | --- | --- | --- |
| CC[C@H](C)[C@H](NC(=O)[C@H](CC(C)C)NC(=O)[C@](C)(Cc1ccccc1)NC(=O)[C@H](CCCCNC(=O)COCCOCCNC(=O)COCCOCCNC(=O)CC[C@H](NC(=O)CCCCCCCCCCCCC(=O)O)C(=O)O)NC(=O)[C@@H](NC(=O)[C@](C)(Cc1ccccc1)NC(=O)[C@H](CCC(=O)O)NC(=O)C(C)(C)NC(=O)[C@H](CCC(N)=O)NC(=O)[C@H](C)NC(=O)[C@H](CCCCNC(=O)COCCOCCNC(=O)COCCOCCNC(=O)CC[C@H](NC(=O)CCCCCCCCCCCCC(=O)O)C(=O)O)NC(=O)[C@H](CCCN)NC(=O)[C@H](CC(=O)O)NC(=O)[C@H](CC(C)C)NC(=O)[C@](C)(CC(C)C)NC(=O)[C@@H](NC(=O)C(C)(C)NC(=O)[C@H](Cc1ccncc1)NC(=O)[C@H](CC(=O)O)NC(=O)[C@H](CO)NC(=O)[C@@H](NC(=O)[C@](C)(Cc1ccccc1F)NC(=O)[C@@H](NC(=O)CNC(=O)[C@H](CCC(=O)O)NC(=O)C(C)(C)NC(=O)[C@@H](N)Cc1ccc(O)cc1)[C@@H](C)O)[C@@H](C)O)[C@@H](C)CC)[C@@H](C)CC)C(=O)N[C@@H](CCC(=O)O)C(=O)NCC(=O)NCC(=O)N1CCC[C@H]1C(=O)N[C@@H](CO)C(=O)N[C@@H](CO)C(=O)NCC(=O)N[C@@H](C)C(=O)N1CCC[C@H]1C(=O)N1CCC[C@H]1C(=O)N1CCC[C@H]1C(=O)N[C@@H](CO)C(N)=O [Example 121] | > 9950 nM | 8.95 nM | 92.8% | 0.0271 nM |  |  |  |  |  |
| CC[C@H](C)[C@H](NC(=O)[C@H](CC(C)C)NC(=O)[C@](C)(Cc1ccccc1)NC(=O)[C@H](CCCCNC(=O)COCCOCCNC(=O)COCCOCCNC(=O)CC[C@H](NC(=O)CCCCCCCCCCCCC(=O)O)C(=O)O)NC(=O)[C@@H](NC(=O)[C@](C)(Cc1ccccc1)NC(=O)[C@H](CCC(=O)O)NC(=O)C(C)(C)NC(=O)[C@H](CCC(N)=O)NC(=O)[C@H](C)NC(=O)[C@H](CCCCNC(=O)COCCOCCNC(=O)COCCOCCNC(=O)CC[C@H](NC(=O)CCCCCCCCCCCCC(=O)O)C(=O)O)NC(=O)[C@H](CCCN)NC(=O)[C@H](CC(=O)O)NC(=O)[C@H](CC(C)C)NC(=O)[C@](C)(CC(C)C)NC(=O)[C@@H](NC(=O)[C@H](CO)NC(=O)[C@@H](NC(=O)[C@H](CC(=O)O)NC(=O)[C@H](CO)NC(=O)[C@@H](NC(=O)[C@](C)(Cc1ccccc1F)NC(=O)[C@@H](NC(=O)CNC(=O)[C@H](CCC(=O)O)NC(=O)C(C)(C)NC(=O)[C@@H](N)Cc1ccc(O)cc1)[C@@H](C)O)[C@@H](C)O)C(C)C)[C@@H](C)CC)[C@@H](C)CC)C(=O)N[C@@H](CCC(=O)O)C(=O)NCC(=O)NCC(=O)N1CCC[C@H]1C(=O)N[C@@H](CO)C(=O)N[C@@H](CO)C(=O)NCC(=O)N[C@@H](C)C(=O)N1CCC[C@H]1C(=O)N1CCC[C@H]1C(=O)N1CCC[C@H]1C(=O)N[C@@H](CO)C(N)=O [Example 122] | > 9950 nM |  |  | 0.064 nM | 94.3% |  |  |  |  |
| CC[C@H](C)[C@H](NC(=O)[C@H](CC(C)C)NC(=O)[C@](C)(Cc1ccccc1)NC(=O)[C@H](CCCCNC(=O)COCCOCCNC(=O)COCCOCCNC(=O)CC[C@H](NC(=O)CCCCCCCCCCCCC(=O)O)C(=O)O)NC(=O)[C@@H](NC(=O)[C@](C)(Cc1ccccc1)NC(=O)[C@H](CCC(=O)O)NC(=O)C(C)(C)NC(=O)[C@H](CCC(N)=O)NC(=O)[C@H](C)NC(=O)[C@H](CCCCNC(=O)COCCOCCNC(=O)COCCOCCNC(=O)CC[C@H](NC(=O)CCCCCCCCCCCCC(=O)O)C(=O)O)NC(=O)[C@H](CCCN)NC(=O)[C@H](CC(=O)O)NC(=O)[C@H](CC(C)C)NC(=O)[C@](C)(CC(C)C)NC(=O)[C@@H](NC(=O)C(C)(C)NC(=O)[C@@H](NC(=O)[C@H](CC(=O)O)NC(=O)[C@H](CO)NC(=O)[C@@H](NC(=O)[C@](C)(Cc1ccccc1F)NC(=O)[C@@H](NC(=O)CNC(=O)[C@H](CCC(=O)O)NC(=O)C(C)(C)NC(=O)[C@@H](N)Cc1ccc(O)cc1)[C@@H](C)O)[C@@H](C)O)C(C)C)[C@@H](C)CC)[C@@H](C)CC)C(=O)N[C@@H](CCC(=O)O)C(=O)NCC(=O)NCC(=O)N1CCC[C@H]1C(=O)N[C@@H](CO)C(=O)N[C@@H](CO)C(=O)NCC(=O)N[C@@H](C)C(=O)N1CCC[C@H]1C(=O)N1CCC[C@H]1C(=O)N1CCC[C@H]1C(=O)N[C@@H](CO)C(N)=O [Example 123] | > 9950 nM | 0.508 nM | 94.9% |  | 96.3% |  |  |  |  |
| CC[C@H](C)[C@H](NC(=O)[C@H](CC(C)C)NC(=O)[C@](C)(Cc1ccc(O)cc1)NC(=O)[C@@H](CCC(=O)O)NC(=O)[C@@H](NC(=O)[C@H](Cc1ccccc1)NC(=O)[C@H](CCC(=O)O)NC(=O)C(C)(C)NC(=O)[C@H](CCC(N)=O)NC(=O)[C@H](C)NC(=O)[C@H](CCCCNC(=O)COCCOCCNC(=O)COCCOCCNC(=O)CC[C@H](NC(=O)CCCCCCCOc1ccc(C(=O)O)cc1)C(=O)O)NC(=O)[C@H](CCCN)NC(=O)[C@H](CC(=O)O)NC(=O)[C@H](CC(C)C)NC(=O)[C@](C)(CC(C)C)NC(=O)[C@@H](NC(=O)[C@H](CO)NC(=O)[C@H](Cc1ccncc1)NC(=O)[C@H](CC(=O)O)NC(=O)[C@H](CO)NC(=O)[C@@H](NC(=O)[C@](C)(Cc1ccccc1F)NC(=O)[C@@H](NC(=O)CNC(=O)[C@H](CCC(=O)O)NC(=O)C(C)(C)NC(=O)[C@@H](N)Cc1ccc(O)cc1)[C@@H](C)O)[C@@H](C)O)[C@@H](C)CC)[C@@H](C)CC)C(=O)N[C@@H](CCC(=O)O)C(=O)NCC(=O)NCC(=O)N[C@@H](CCCCNC(=O)COCCOCCNC(=O)COCCOCCNC(=O)CC[C@H](NC(=O)CCCCCCCOc1ccc(C(=O)O)cc1)C(=O)O)C(=O)N[C@@H](CO)C(=O)N[C@@H](CO)C(=O)NCC(=O)N[C@@H](C)C(=O)N1CCC[C@H]1C(=O)N1CCC[C@H]1C(=O)N1CCC[C@H]1C(=O)N[C@@H](CO)C(N)=O [Example 126] | > 9950 nM | 1.69 nM | 91.8% |  |  |  |  |  |  |
| CC[C@H](C)[C@H](NC(=O)[C@H](CC(C)C)NC(=O)[C@](C)(Cc1ccc(O)cc1)NC(=O)[C@@H](CCC(=O)O)NC(=O)[C@@H](NC(=O)[C@H](Cc1ccccc1)NC(=O)[C@H](CCC(=O)O)NC(=O)C(C)(C)NC(=O)[C@H](CCC(N)=O)NC(=O)[C@H](C)NC(=O)[C@H](CCCCNC(=O)COCCOCCNC(=O)COCCOCCNC(=O)CC[C@H](NC(=O)CCCc1ccc(C(C)(C)C)cc1)C(=O)O)NC(=O)[C@H](CCCN)NC(=O)[C@H](CC(=O)O)NC(=O)[C@H](CC(C)C)NC(=O)[C@](C)(CC(C)C)NC(=O)[C@@H](NC(=O)[C@H](CO)NC(=O)[C@H](CCCCNC(=O)COCCOCCNC(=O)COCCOCCNC(=O)CC[C@H](NC(=O)CCCc1ccc(C(C)(C)C)cc1)C(=O)O)NC(=O)[C@H](CC(=O)O)NC(=O)[C@H](CO)NC(=O)[C@@H](NC(=O)[C@](C)(Cc1ccccc1F)NC(=O)[C@@H](NC(=O)CNC(=O)[C@H](CCC(=O)O)NC(=O)C(C)(C)NC(=O)[C@@H](N)Cc1ccc(O)cc1)[C@@H](C)O)[C@@H](C)O)[C@@H](C)CC)[C@@H](C)CC)C(=O)N[C@@H](CCC(=O)O)C(=O)NCC(=O)NCC(=O)N1CCC[C@H]1C(=O)N[C@@H](CO)C(=O)N[C@@H](CO)C(=O)NCC(=O)N[C@@H](C)C(=O)N1CCC[C@H]1C(=O)N1CCC[C@H]1C(=O)N1CCC[C@H]1C(=O)N[C@@H](CO)C(N)=O [Example 130] |  |  |  |  |  | > 9950 nM | 100 ± 1.69% | 94.7 ± 4.51% | 0.0266 nM |

From patent US20230265151A1, “GIP/GLP1 CO-AGONIST COMPOUNDS” (priority 2020, published 2023)
